In the oligonucleotide strings, read from the 5' end, every base follows the letter of its sugar. An asterisk marks phosphorothioate; unmarked linkages are phosphodiester. Other units and linkages are bracketed, terminal groups are in braces. A string of capitals states the bases alone. d = 2'-deoxy (DNA)
System: Patients With Advanced Tumors Known to Overproduce TGFβ2
Assay: Phase I/II dose escalation study P-001, safety (MTD, DLT, adverse events)
Type: in vivo, human
Method: Over-expression of transforming growth factor-beta 2 (TGF-β2) is associated with poor prognosis and plays a key role for malignant progression of various tumors by inducing proliferation, metastasis, angiogenesis and immunosuppression. P-001 trial of trabedersen-Safety and Tolerability of AP 12009 (trabedersen), Administered I.V. in Patients With Advanced Tumors Known to Overproduce TGFβ2, was evaluated to determine if treatment with trabedersen primed the tumors to subsequent chemotherapy.
In the instant study, the primary objective was to determine the Maximum Tolerated Dose (MTD) and the Dose Limited Toxicity (DLT) of two cycles of trabedersen administered intravenously (i.v.) for either 7 days every other week (i.e. 7 days on/7 days off) or for 4 days every other week (4 days on/10 days off). The secondary objective included assessment of antitumor activity of trabedersen administered intravenously for either 7 days every other week (i.e. 7 days on/7 days off) or for 4 days every other week (4 days on/10 days off).
The escalation scheme of this study aimed to determinate the MTD of two cycles of trabedersen (so called ‘core study period’) administered as a continuous i.v. infusion for 7 days every other week (7-days-on/7-days-off) or for 4 days every other week (4-days-on/10-days-off).
In general, it was planned to enroll a cohort of at least 3 evaluable patients per treatment group. For each cohort, the safety data obtained until end of the core study period (period for DLT-assessment, Cycle 1 and Cycle 2) were assessed in an interim analysis and evaluated by a Data and Safety Monitoring Board (DSMB). […] If 2 of these 3 patients experienced a DLT, the number of evaluable patients for the subsequent treatment group was increased to 6 for further evaluation of toxicity. Patients who were withdrawn from the study due to adverse events (AEs) attributed to DLT by the treating clinician, were not replaced but were used to determine the MTD and to evaluate the safety of the study drug. If patients were withdrawn due to other reasons, they were replaced until the treatment group was complete.
The MTD was determined according to the following procedure: If 2 out of 3 patients of 1 cohort experienced a DLT, 3 more patients were enrolled in the same treatment group. If at least 1 of these additional 3 patients also met the toxicity criteria for a DLT, the MTD for two cycles was determined; otherwise the dose escalation was continued upon agreement with the DSMB. MTD for two cycles was then defined as the dose at which no more than 2 out of 3, or 2 out of 6 patients of the same treatment group experienced a DLT. This procedure was followed until the MTD was reached.
The safety population comprised of 61 patients, representing all patients for whom at least once a trabedersen infusion was started. According to the protocol, the MTD was determined according to the following procedure: if […] out of 3 patients of one cohort experience dose-limiting toxicity, 3 more patients were enrolled in the same treatment group. If at least 1 more patient of this second cohort met the toxicity criteria, MTD for two cycles has been determined (otherwise escalation was continued). MTD for two cycles was then defined as the dose at which no more than 2 out of 3 or 2 out of 6 patients of the same treatment group experienced DLT. […] In the case that 2 patients of the first cohort experienced DLTs that clearly indicated attainment of the MTD, the second cohort could also be omitted. The described procedure was pursued until the MTD is reached.

[1] = 240 mg/m^2/day, 7-days-on and 7-days-off schedule
[2] = 4-days-on and 10-days-off schedule
[3] = 4-days-on, 10-days off schedule (N = 44)
[4] = 7-days-on and 7-days-off schedule
[5] = 7-days-on, 7-days off schedule (N = 17)

trabedersen: TGF-beta2 specific phosphorothioate antisense oligodeoxynucleotide with the sequence 5′-CGGCATGTCTATTTTGTA-3′ (SEQ ID No: 1) (antisense dC*dG*dG*dC*dA*dT*dG*dT*dC*dT*dA*dT*dT*dT*dT*dG*dT*dA)
dose-limiting toxicity observed (140 mg/m^2/day, 4-days-on and 10-days-off schedule, one patient): Grade 3 upper gastrointestinal hemorrhage | DLT: cases of Grade 3 maculopapular rash [1]: 1 | DLT: cases of Grade 3 thrombocytopenia [1]: 2 | number of patients who experienced a DLT [1]: 3 | patients with TEAEs that led to treatment discontinuation, % [2]: 15.9% | patients with TEAEs that led to treatment discontinuation, number [2]: 7 | MTD (4-days-on and 10-days-off schedule, no MTD established, highest dose tested): > 330 mg/m^2/day | Any SAE: % of patients with SAE [3]: 40.9% | Any SAE: No. of SAEs [3]: 28 | Any SAE: No. of patients with SAE [3]: 18 | Ascites: No. of patients with SAE [3]: 0 | Cancer Pain: % of patients with SAE [3]: 4.5% | Cancer Pain: No. of SAEs [3]: 2 | Cancer Pain: No. of patients with SAE [3]: 2 | Catheter related Infection: % of patients with SAE [3]: 2.3% | Catheter related Infection: No. of SAEs [3]: 1 | Catheter related Infection: No. of patients with SAE [3]: 1 | Cholangitis: % of patients with SAE [3]: 6.8% | Cholangitis: No. of SAEs [3]: 3 | Cholangitis: No. of patients with SAE [3]: 3 | Cholestasis: % of patients with SAE [3]: 2.3% | Cholestasis: No. of SAEs [3]: 1 | Cholestasis: No. of patients with SAE [3]: 1 | GI hemorrhage: % of patients with SAE [3]: 2.3% | GI hemorrhage: No. of SAEs [3]: 2 | GI hemorrhage: No. of patients with SAE [3]: 1 | Pneumonia: No. of patients with SAE [3]: 0 | Upper GI hemorrhage: % of patients with SAE [3]: 2.3% | Upper GI hemorrhage: No. of SAEs [3]: 1 | Upper GI hemorrhage: No. of patients with SAE [3]: 1 | MTD [4]: 160 mg/m^2/day | patients with TEAEs that led to treatment discontinuation, % [4]: 41.2% | patients with TEAEs that led to treatment discontinuation, number [4]: 7 | Any SAE: % of patients with SAE [5]: 70.6% | Any SAE: No. of SAEs [5]: 28 | Any SAE: No. of patients with SAE [5]: 12 | Ascites: % of patients with SAE [5]: 17.6% | Ascites: No. of SAEs [5]: 3 | Ascites: No. of patients with SAE [5]: 3 | Cancer Pain: No. of patients with SAE [5]: 0 | Catheter related Infection: % of patients with SAE [5]: 11.8% | Catheter related Infection: No. of SAEs [5]: 2 | Catheter related Infection: No. of patients with SAE [5]: 2 | Cholangitis: % of patients with SAE [5]: 5.9% | Cholangitis: No. of SAEs [5]: 1 | Cholangitis: No. of patients with SAE [5]: 1 | Cholestasis: % of patients with SAE [5]: 5.9% | Cholestasis: No. of SAEs [5]: 1 | Cholestasis: No. of patients with SAE [5]: 1 | GI hemorrhage: % of patients with SAE [5]: 11.8% | GI hemorrhage: No. of SAEs [5]: 3 | GI hemorrhage: No. of patients with SAE [5]: 2 | Pneumonia: % of patients with SAE [5]: 17.6% | Pneumonia: No. of SAEs [5]: 3 | Pneumonia: No. of patients with SAE [5]: 3 | Upper GI hemorrhage: % of patients with SAE [5]: 5.9% | Upper GI hemorrhage: No. of SAEs [5]: 1 | Upper GI hemorrhage: No. of patients with SAE [5]: 1 | MTD (4 days on and days off regimen (N=27), not reached at highest dose): > 330 mg/m^2/d | MTD (7 days on and 7 days off regimen (N=11)): 160 mg/m^2/d | Any SAE: % of patients with SAE (Total (N = 61)): 49.2% | Any SAE: No. of SAEs (Total (N = 61)): 56 | Any SAE: No. of patients with SAE (Total (N = 61)): 30 | Ascites: % of patients with SAE (Total (N = 61)): 4.9% | Ascites: No. of SAEs (Total (N = 61)): 3 | Ascites: No. of patients with SAE (Total (N = 61)): 3 | Cancer Pain: % of patients with SAE (Total (N = 61)): 3.3% | Cancer Pain: No. of SAEs (Total (N = 61)): 2 | Cancer Pain: No. of patients with SAE (Total (N = 61)): 2 | Catheter related Infection: % of patients with SAE (Total (N = 61)): 4.9% | Catheter related Infection: No. of SAEs (Total (N = 61)): 3 | Catheter related Infection: No. of patients with SAE (Total (N = 61)): 3 | Cholangitis: % of patients with SAE (Total (N = 61)): 6.6% | Cholangitis: No. of SAEs (Total (N = 61)): 4 | Cholangitis: No. of patients with SAE (Total (N = 61)): 4 | Cholestasis: % of patients with SAE (Total (N = 61)): 3.3% | Cholestasis: No. of SAEs (Total (N = 61)): 2 | Cholestasis: No. of patients with SAE (Total (N = 61)): 2 | GI hemorrhage: % of patients with SAE (Total (N = 61)): 4.9% | GI hemorrhage: No. of SAEs (Total (N = 61)): 3 | GI hemorrhage: No. of patients with SAE (Total (N = 61)): 3 | Pneumonia: % of patients with SAE (Total (N = 61)): 4.9% | Pneumonia: No. of SAEs (Total (N = 61)): 3 | Pneumonia: No. of patients with SAE (Total (N = 61)): 3 | Upper GI hemorrhage: % of patients with SAE (Total (N = 61)): 3.3% | Upper GI hemorrhage: No. of SAEs (Total (N = 61)): 2 | Upper GI hemorrhage: No. of patients with SAE (Total (N = 61)): 2 | number of patients for whom a DLT was proclaimed (all cohorts, 2 pancreatic carcinoma, 2 colorectal cancer): 4 | patients with TEAEs that led to treatment discontinuation, % (all patients): 23.0% | patients with TEAEs that led to treatment discontinuation, number (all patients): 14 | total number of TEAEs that led to treatment discontinuation (all patients): 23 | patients with TEAEs that led to treatment discontinuation, % (colorectal cancer): 40.0% | patients with TEAEs that led to treatment discontinuation, number (colorectal cancer): 2 | daily dose of MTD (initial 7-days-on and 7-days-off schedule): approx. 4 mg/kg/day | patients with TEAEs that led to treatment discontinuation, % (melanoma): 15.8% | patients with TEAEs that led to treatment discontinuation, number (melanoma): 3 | patients with TEAEs that led to treatment discontinuation, % (pancreatic cancer): 24.3% | patients with TEAEs that led to treatment discontinuation, number (pancreatic cancer): 9

From patent US9963703B2, “Compositions and methods for treating pancreatic cancer” (Autotelic LLC, priority 2016, dated 2018)
